By EC50 is commonly meant the concentration giving half of the maximal effect. A low value points to an effect from little substance.

Here are results for three compounds from BindingDB's records for doi:10.1021/jm025550h (Abbott Laboratories, 2002).

A short description of assay [1]: Effective concentration in vitro against rabbit urethra Alpha-1 adrenergic receptor.
Assay [2] can be described thus: Effective concentration in vitro against rabbit urethra Alpha-1A adrenergic receptor.

Take `COc1ccc(OC)c(C(O)CN)c1` (stereo not drawn): the EC50 in assay [1] is 7.1 µM.
Consider `CC(N)C(O)c1ccccc1` [(1R, 2S)-2-Amino-1-phenyl-propan-1-ol], for which, in assay [1], the midpoint of the response, the EC50, lay at 230 µM.
`CCS(=O)(=O)Nc1cccc(Cc2cnc[nH]2)c1` [ABT-866]: the EC50 in assay [2] came out at 0.6 µM.
